Measured values published in ChEMBL document CHEMBL1201862, “PubChem BioAssay data set” (2004).
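How tested: cells in 96-well plates exposed to compound for 48 hours at five concentrations. GI50: concentration for 50% inhibition of growth.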 The source made the active and inactive calls. Cut-off read from the data, not from the text of the source: active = GI50 up to about 1.1 µM and inactive = higher.

Legend:
Assay in all cases: growth of human tumour cells (NCI), 48 h
NCI-H226 = test system: NCI-H226
SK-OV-3 = test system: SK-OV-3
NCI-H23 = test system: NCI-H23
SK-MEL-5 = test system: SK-MEL-5
RPMI-8226 = test system: RPMI-8226
OVCAR-3 = test system: OVCAR-3
NCI-H522 = test system: NCI-H522
M14 = test system: M14
SNB-75 = test system: SNB-75
HCT-116 = test system: HCT-116
Malme-3M = test system: Malme-3M
MDA-N = test system: MDA-N
U-251 = test system: U-251
HL-60 = test system: HL-60
UACC-62 = test system: UACC-62
TK-10 = test system: TK-10
SF-539 = test system: SF-539
EKVX = test system: EKVX
MDA-MB-231 = test system: MDA-MB-231
Hs-578T = test system: Hs-578T
SR = test system: SR
OVCAR-4 = test system: OVCAR-4
HOP-62 = test system: HOP-62
OVCAR-5 = test system: OVCAR-5
DU-145 = test system: DU-145
MCF7 = test system: MCF7
SK-MEL-28 = test system: SK-MEL-28
HCT-15 = test system: HCT-15
UACC-257 = test system: UACC-257
NCI-H460 = test system: NCI-H460
UO-31 = test system: UO-31
T47D = test system: T47D
IGROV-1 = test system: IGROV-1
KM12 = test system: KM12
CAKI-1 = test system: CAKI-1
A549 = test system: A549
MDA-MB-435 = test system: MDA-MB-435
CCRF-CEM = test system: CCRF-CEM
SK-MEL-2 = test system: SK-MEL-2
K562 = test system: K562
BT-549 = test system: BT-549
LOX IMVI = test system: LOX IMVI
A498 = test system: A498
SN12C = test system: SN12C
SW-620 = test system: SW-620
RXF 393 = test system: RXF 393
PC-3 = test system: PC-3
HCC 2998 = test system: HCC 2998
786-0 = test system: 786-0
ACHN = test system: ACHN
HT-29 = test system: HT-29
HOP-92 = test system: HOP-92
SF-295 = test system: SF-295
OVCAR-8 = test system: OVCAR-8
SNB-19 = test system: SNB-19
NCI/ADR-RES = test system: NCI/ADR-RES
SF-268 = test system: SF-268
COLO 205 = test system: COLO 205
MOLT-4 = test system: MOLT-4
SNB-78 = test system: SNB-78
LXFL 529 = test system: LXFL 529
M19-MEL = test system: M19-MEL
KM-20L2 = test system: KM-20L2
DMS-273 = test system: DMS-273
DLD-1 = test system: DLD-1

## COC(=O)/C=C1/OC(c2ccc(Br)cc2)=C(Br)C1=O
NCI-H226
  GI50: 14.4 µM (inactive)
SK-OV-3
  GI50: 19.9 µM (inactive)
NCI-H23
  GI50: 6.7 µM (inactive)
SK-MEL-5
  GI50: 7.48 µM (inactive)
RPMI-8226
  GI50: 2.26 µM (inactive)
OVCAR-3
  GI50: 4.35 µM (inactive)
NCI-H522
  GI50: 3.94 µM (inactive)
M14
  GI50: 4.93 µM (inactive)
SNB-75
  GI50: 7.43 µM (inactive)
HCT-116
  GI50: 3 µM (inactive)
Malme-3M
  GI50: 7.94 µM (inactive)
MDA-N
  GI50: 5.26 µM (inactive)
U-251
  GI50: 2.57 µM (inactive)
HL-60
  GI50: 2.06 µM (inactive)
UACC-62
  GI50: 7.05 µM (inactive)
TK-10
  GI50: 6.59 µM (inactive)
SF-539
  GI50: 5.94 µM (inactive)
EKVX
  GI50: 13.2 µM (inactive)
MDA-MB-231
  GI50: 2.43 µM (inactive)
Hs-578T
  GI50: 8.38 µM (inactive)
SR
  GI50: 0.179 µM (active)
OVCAR-4
  GI50: 5.16 µM (inactive)
HOP-62
  GI50: 7.57 µM (inactive)
OVCAR-5
  GI50: 6.34 µM (inactive)
DU-145
  GI50: 12.7 µM (inactive)
MCF7
  GI50: 10.5 µM (inactive)
SK-MEL-28
  GI50: 12 µM (inactive)
HCT-15
  GI50: 5.14 µM
UACC-257
  GI50: 13.3 µM (inactive)
NCI-H460
  GI50: 14.5 µM (inactive)
UO-31
  GI50: 11.7 µM (inactive)
T47D
  GI50: 5.55 µM (inactive)
IGROV-1
  GI50: 6.34 µM (inactive)
KM12
  GI50: 8.07 µM (inactive)
CAKI-1
  GI50: 2.33 µM (inactive)
A549
  GI50: 16 µM (inactive)
MDA-MB-435
  GI50: 7.67 µM (inactive)
CCRF-CEM
  GI50: 1.82 µM (inactive)
SK-MEL-2
  GI50: 10.6 µM (inactive)
K562
  GI50: 2.47 µM (inactive)
BT-549
  GI50: 5.28 µM (inactive)
LOX IMVI
  GI50: 3.84 µM (inactive)
A498
  GI50: 16.6 µM (inactive)
SN12C
  GI50: 6.92 µM (inactive)
SW-620
  GI50: 2.6 µM (inactive)
RXF 393
  GI50: 4.94 µM (inactive)
PC-3
  GI50: 6.93 µM (inactive)
HCC 2998
  GI50: 7.66 µM (inactive)
786-0
  GI50: 2.4 µM (inactive)
ACHN
  GI50: 7.23 µM (inactive)
HT-29
  GI50: 4.29 µM (inactive)
HOP-92
  GI50: 7.48 µM (inactive)
SF-295
  GI50: 14.1 µM (inactive)
OVCAR-8
  GI50: 3.29 µM (inactive)
SNB-19
  GI50: 10.4 µM (inactive)
NCI/ADR-RES
  GI50: 9.4 µM (inactive)
SF-268
  GI50: 6.93 µM (inactive)
COLO 205
  GI50: 1.89 µM (inactive)
MOLT-4
  GI50: 2.42 µM (inactive)

## CC(C(=O)n1nnc2ccccc21)N(c1ccccc1)c1ccccc1 (stereo not given)
NCI-H226
  GI50: 87.7 µM (inactive)
SK-OV-3
  GI50: > 100 µM (inactive)
NCI-H23
  GI50: 56.8 µM (inactive)
SK-MEL-5
  GI50: 42.9 µM (inactive)
RPMI-8226
  GI50: 52.7 µM (inactive)
OVCAR-3
  GI50: 66.7 µM (inactive)
NCI-H522
  GI50: 45.5 µM (inactive)
SNB-78
  GI50: > 100 µM (inactive)
M14
  GI50: > 100 µM (inactive)
SNB-75
  GI50: 69.5 µM (inactive)
HCT-116
  GI50: 89.5 µM (inactive)
Malme-3M
  GI50: 84.7 µM (inactive)
U-251
  GI50: 43.5 µM (inactive)
HL-60
  GI50: 45.1 µM (inactive)
UACC-62
  GI50: > 100 µM (inactive)
TK-10
  GI50: > 100 µM (inactive)
SF-539
  GI50: > 100 µM (inactive)
EKVX
  GI50: 68.2 µM (inactive)
LXFL 529
  GI50: > 100 µM (inactive)
SR
  GI50: 78.3 µM (inactive)
HOP-62
  GI50: > 100 µM (inactive)
OVCAR-5
  GI50: > 100 µM (inactive)
M19-MEL
  GI50: > 100 µM (inactive)
SK-MEL-28
  GI50: > 100 µM (inactive)
HCT-15
  GI50: > 100 µM
UACC-257
  GI50: 72.4 µM (inactive)
NCI-H460
  GI50: > 100 µM (inactive)
UO-31
  GI50: > 100 µM (inactive)
IGROV-1
  GI50: > 100 µM (inactive)
CAKI-1
  GI50: > 100 µM (inactive)
A549
  GI50: 56.9 µM (inactive)
CCRF-CEM
  GI50: 83.4 µM (inactive)
SK-MEL-2
  GI50: > 100 µM (inactive)
K562
  GI50: > 100 µM (inactive)
LOX IMVI
  GI50: 76.6 µM (inactive)
SN12C
  GI50: > 100 µM (inactive)
SW-620
  GI50: > 100 µM (inactive)
KM-20L2
  GI50: > 100 µM (inactive)
RXF 393
  GI50: > 100 µM (inactive)
DMS-273
  GI50: 91.6 µM (inactive)
HCC 2998
  GI50: > 100 µM (inactive)
786-0
  GI50: > 100 µM (inactive)
ACHN
  GI50: > 100 µM (inactive)
HT-29
  GI50: > 100 µM (inactive)
SF-295
  GI50: > 100 µM (inactive)
OVCAR-8
  GI50: > 100 µM (inactive)
SNB-19
  GI50: 48.3 µM (inactive)
DLD-1
  GI50: > 100 µM (inactive)
SF-268
  GI50: > 100 µM (inactive)
COLO 205
  GI50: > 100 µM (inactive)
MOLT-4
  GI50: 99.5 µM (inactive)

## CSCCC(N)P(C)(=O)O (stereo not given)
NCI-H226
  GI50: > 100 µM (inactive)
SK-OV-3
  GI50: > 100 µM (inactive)
NCI-H23
  GI50: > 100 µM (inactive)
SK-MEL-5
  GI50: > 100 µM (inactive)
RPMI-8226
  GI50: > 100 µM (inactive)
OVCAR-3
  GI50: > 100 µM (inactive)
NCI-H522
  GI50: > 100 µM (inactive)
M14
  GI50: > 100 µM (inactive)
SNB-75
  GI50: > 100 µM (inactive)
HCT-116
  GI50: > 100 µM (inactive)
Malme-3M
  GI50: > 100 µM (inactive)
MDA-N
  GI50: > 100 µM (inactive)
U-251
  GI50: > 100 µM (inactive)
HL-60
  GI50: > 100 µM (inactive)
UACC-62
  GI50: > 100 µM (inactive)
TK-10
  GI50: > 100 µM (inactive)
SF-539
  GI50: > 100 µM (inactive)
EKVX
  GI50: > 100 µM (inactive)
MDA-MB-231
  GI50: > 100 µM (inactive)
Hs-578T
  GI50: > 100 µM (inactive)
SR
  GI50: > 100 µM (inactive)
OVCAR-4
  GI50: > 100 µM (inactive)
HOP-62
  GI50: > 100 µM (inactive)
OVCAR-5
  GI50: > 100 µM (inactive)
DU-145
  GI50: > 100 µM (inactive)
MCF7
  GI50: > 100 µM (inactive)
SK-MEL-28
  GI50: > 100 µM (inactive)
HCT-15
  GI50: > 100 µM
UACC-257
  GI50: > 100 µM (inactive)
NCI-H460
  GI50: > 100 µM (inactive)
UO-31
  GI50: > 100 µM (inactive)
T47D
  GI50: > 100 µM (inactive)
IGROV-1
  GI50: > 100 µM (inactive)
KM12
  GI50: > 100 µM (inactive)
CAKI-1
  GI50: > 100 µM (inactive)
A549
  GI50: > 100 µM (inactive)
MDA-MB-435
  GI50: > 22.2 µM (inactive)
CCRF-CEM
  GI50: > 100 µM (inactive)
SK-MEL-2
  GI50: > 100 µM (inactive)
K562
  GI50: > 100 µM (inactive)
BT-549
  GI50: > 100 µM (inactive)
LOX IMVI
  GI50: > 100 µM (inactive)
A498
  GI50: > 100 µM (inactive)
SN12C
  GI50: > 100 µM (inactive)
SW-620
  GI50: > 100 µM (inactive)
RXF 393
  GI50: > 100 µM (inactive)
PC-3
  GI50: > 100 µM (inactive)
HCC 2998
  GI50: > 100 µM (inactive)
786-0
  GI50: > 100 µM (inactive)
ACHN
  GI50: > 100 µM (inactive)
HT-29
  GI50: > 100 µM (inactive)
HOP-92
  GI50: > 100 µM (inactive)
SF-295
  GI50: > 100 µM (inactive)
OVCAR-8
  GI50: > 100 µM (inactive)
SNB-19
  GI50: > 100 µM (inactive)
NCI/ADR-RES
  GI50: > 100 µM (inactive)
SF-268
  GI50: > 100 µM (inactive)
COLO 205
  GI50: > 100 µM (inactive)
MOLT-4
  GI50: > 100 µM (inactive)

## COc1ccc2c(c1)-c1nn(CCCN(C)C)c3ccc([N+](=O)[O-])c(c13)N2 [PYRAZOLOACRIDINE]
NCI-H23
  GI50: 0.662 µM (active)
SK-MEL-5
  GI50: 0.536 µM (active)
RPMI-8226
  GI50: 0.305 µM (active)
M14
  GI50: 0.61 µM (active)
HCT-116
  GI50: 0.0986 µM (active)
Hs-578T
  GI50: 0.603 µM (active)
SR
  GI50: 0.173 µM (active)
DU-145
  GI50: 0.484 µM (active)
MCF7
  GI50: 0.333 µM (active)
CAKI-1
  GI50: 0.396 µM (active)
SK-MEL-2
  GI50: 0.647 µM (active)
SN12C
  GI50: 0.199 µM (active)
SW-620
  GI50: 0.133 µM (active)
DMS-273
  GI50: 0.135 µM (active)
786-0
  GI50: 0.191 µM (active)
HT-29
  GI50: 0.137 µM (active)
OVCAR-8
  GI50: 0.118 µM (active)
DLD-1
  GI50: 0.262 µM (active)
NCI/ADR-RES
  GI50: 0.0986 µM (active)
SF-268
  GI50: 0.283 µM (active)
MOLT-4
  GI50: 0.0662 µM (active)
